In patent publication US20100010057A1, “THIAZOLE DERIVATIVES AS INHIBITORS OF P13 KINASE” (CHROMA THERAPEUTICS LTD., priority 2006, published 2010) one finds IC50 data, which are given here for 25 compounds.

Where only a bound is given, the exact number is not on record here.

Assay [1] concerns the target PI3Kγ (human) (Homo sapiens, UniProt P48736). Briefly: Inhibition of PI3 kinase γ activity (HTRF). Type of assay: biochemical. Particulars: ATP at or close to Km, IC50 range, read-out: Inhibitor activity versus PI3 Kinase γ. How it is done:
(B) Inhibition of PI3 Kinase V Activity
In a final reaction volume of 20 μl, PI3Kγ (human) is incubated in assay buffer containing 10 μM phosphatidylinositol-4,5-bisphosphate and MgATP (concentration as required). The reaction is initiated by the addition of the MgATP mix. After incubation for 30 minutes at room temperature, the reaction is stopped by the addition of 5 μl of stop solution containing EDTA and biotinylated phosphatidylinositol-3,4,5-trisphosphate. Finally, 5 μl of detection buffer is added, which contains europium-labelled anti-GST monoclonal antibody, GST-tagged GRP1 PH domain and streptavidin-allophycocyanin. The plate is then read in time-resolved fluorescence mode and the homogenous time-resolved fluorescence (HTRF) signal is determined according to the formula HTRF=10000×(Em665 nm/Em620 nm).
Duplicate data points are generated from a ⅓ log dilution series of a stock solution of compound in DMSO. Nine dilutions steps are made from a top concentration of 10 μM, and a ‘no compound’ blank is included. The HTRF PI 3-Kinase assay is performed at an ATP concentration at, or close to, the Km. HTRF ratio data is transformed into % activity of controls and analysed with a four parameter sigmoidal dose-response (variable slope) application. QC criteria is based on Top, Bottom, Hill slope, r^2 and IC50, the concentration giving 50% inhibition, which is reported.
(§1) For each of the assays (B), (C) and (D) above, IC50 values are allocated to one of three ranges as follows: […]
Background: Time-resolved FRET reads energy transfer from a long-lived donor to a nearby acceptor.

Assay [2] deals with THP-1 cells. Briefly: LPS-stimulation of THP-1 cells, TNF-α release. It counts as cell-based. Particulars: Homo sapiens, LPS 1 μg/ml, 6 h, TNF-α by ELISA, IC50 range, read-out: Inhibitor activity versus THP-1 TNFα release. As to the method: (C) LPS-Stimulation of THP-1 Cells
THP-1 cells are plated in 100 μl at a density of 4×10^4 cells/well in V-bottomed 96 well tissue culture treated plates and incubated at 37° C. in 5% CO2 for 16 h. 2 h after the addition of the inhibitor in 100 μl of tissue culture media, the cells are stimulated with LPS (E. coli strain 005:B5, Sigma) at a final concentration of 1 μg/ml and incubated at 37° C. in 5% CO2 for 6 h. TNF-α levels are measured from cell-free supernatants by sandwich ELISA (R&D Systems #QTA00B)
as §1
In general terms: An ELISA detects its analyte on a solid surface through an enzyme-linked reagent.

PI3Kγ (human), sequence (P48736 whole entry): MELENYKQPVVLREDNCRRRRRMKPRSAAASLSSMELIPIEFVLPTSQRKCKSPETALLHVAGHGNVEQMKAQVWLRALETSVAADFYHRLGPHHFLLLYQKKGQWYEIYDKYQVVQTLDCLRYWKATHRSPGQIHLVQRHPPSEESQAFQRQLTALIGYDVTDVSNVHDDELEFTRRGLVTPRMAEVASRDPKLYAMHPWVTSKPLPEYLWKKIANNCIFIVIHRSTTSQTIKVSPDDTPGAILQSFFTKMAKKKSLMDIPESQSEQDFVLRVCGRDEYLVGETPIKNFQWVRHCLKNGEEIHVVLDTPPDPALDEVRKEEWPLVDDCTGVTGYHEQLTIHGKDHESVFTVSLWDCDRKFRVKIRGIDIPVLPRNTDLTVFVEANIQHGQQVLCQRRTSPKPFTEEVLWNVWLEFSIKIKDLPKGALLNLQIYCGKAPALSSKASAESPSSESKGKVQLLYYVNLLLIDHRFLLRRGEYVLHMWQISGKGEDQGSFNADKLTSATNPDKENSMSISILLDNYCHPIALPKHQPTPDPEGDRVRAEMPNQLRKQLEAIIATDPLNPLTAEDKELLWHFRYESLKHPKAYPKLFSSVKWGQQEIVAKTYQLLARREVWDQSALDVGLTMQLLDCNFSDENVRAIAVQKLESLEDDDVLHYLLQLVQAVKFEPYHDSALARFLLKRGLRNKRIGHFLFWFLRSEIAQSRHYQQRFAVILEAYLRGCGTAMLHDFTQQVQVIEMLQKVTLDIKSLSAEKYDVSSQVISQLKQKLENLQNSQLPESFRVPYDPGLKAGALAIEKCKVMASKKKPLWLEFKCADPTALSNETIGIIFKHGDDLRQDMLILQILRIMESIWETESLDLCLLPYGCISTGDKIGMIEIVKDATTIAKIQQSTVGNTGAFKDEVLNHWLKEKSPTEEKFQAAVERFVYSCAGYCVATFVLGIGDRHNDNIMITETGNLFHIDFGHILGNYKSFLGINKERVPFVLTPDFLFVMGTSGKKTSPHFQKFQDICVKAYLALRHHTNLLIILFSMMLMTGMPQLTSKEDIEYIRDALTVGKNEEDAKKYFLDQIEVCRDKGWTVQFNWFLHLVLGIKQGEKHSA

For `Cc1nc(NC(=O)CCN[C@@H](C)C(=O)O)sc1-c1ccc(Cl)c(S(C)(=O)=O)c1` [Example 38, N-[3-({5-[4-Chloro-3-(methylsulfonyl)phenyl]-4-methyl-1,3-thiazol-2-yl}amino)-3-oxopropyl]-L-alanine], the IC50 in assay [1] was > 1000 nM.

Regarding `Cc1nc(NC(=O)CCCN[C@@H](COC(C)(C)C)C(=O)OC2CCCC2)sc1-c1ccc(Cl)c(S(C)(=O)=O)c1` [Example 12, Cyclopentyl O-tert-butyl-N-[4-({5-[4-chloro-3-(methylsulfonyl)phenyl]-4-methyl-1,3-thiazol-2-yl}amino)-4-oxobutyl]-L-serinate], the IC50 in assay [1] and in assay [2] was > 1000 nM in each case.

For the compound `Cc1nc(NC(=O)CCCN[C@@H](C(=O)OC2CCCC2)c2ccccc2)sc1-c1ccc(Cl)c(S(C)(=O)=O)c1` [Example 9, Cyclopentyl (2R)-{[4-({5-[4-chloro-3-(methylsulfonyl)phenyl]-4-methyl-1,3-thiazol-2-yl}amino)-4-oxobutyl]amino}(phenyl)acetate], the figures for the IC50 in assay [1] and in assay [2] were 100 to 1000 nM and > 1000 nM, respectively.

`CC(=O)Nc1nc(C)c(-c2ccc(Cl)c(S(=O)(=O)NCCN[C@@H](CC(C)C)C(=O)OC3CCCC3)c2)s1` [Example 22, Cyclopentyl N-[2-({[5-(2-acetamido-4-methyl-1,3-thiazol-5-yl)-2-chlorophenyl]sulfonyl}amino)ethyl]-L-leucinate]: the IC50 in assay [1] and in assay [2] was > 1000 nM throughout.

Turning to `Cc1nc(NCCCN[C@@H](CC(C)C)C(=O)O)sc1-c1ccc(Cl)c(S(C)(=O)=O)c1` [Example 39, N-[3-({5-[4-Chloro-3-(methylsulfonyl)phenyl]-4-methyl-1,3-thiazol-2-yl}amino)propyl]-L-leucine], in assay [1], the IC50 is > 1000 nM.

In the case of `Cc1nc(NC(=O)N[C@@H](COC(C)(C)C)C(=O)O)sc1-c1ccc(Cl)c(S(C)(=O)=O)c1` [Example 30, O-tert-Butyl-N-({5-[4-chloro-3-(methylsulfonyl)phenyl]-4-methyl-1,3-thiazol-2-yl}carbamoyl)-L-serine], in assay [1], the IC50 is > 1000 nM.

As for `Cc1nc(NCCCN[C@@H](CC(C)C)C(=O)OC2CCCC2)sc1-c1ccc(Cl)c(S(C)(=O)=O)c1` [Example 17, Cyclopentyl N-[3-({5-[4-chloro-3-(methylsulfonyl)phenyl]-4-methyl-1,3-thiazol-2-yl}amino)propyl]-L-leucinate], the IC50 in assay [1] and in assay [2] was > 1000 nM throughout.

For the compound `Cc1nc(NC(=O)CCCN[C@@H](Cc2ccccc2)C(=O)OC2CCCC2)sc1-c1ccc(Cl)c(S(C)(=O)=O)c1` [Example 11, Cyclopentyl N-[4-({5-[4-chloro-3-(methylsulfonyl)phenyl]-4-methyl-1,3-thiazol-2-yl}amino)-4-oxobutyl]-L-phenylalaninate], the IC50 in assay [1] and in assay [2] was > 1000 nM each time.

Take `Cc1nc(NC(=O)N[C@@H](COC(C)(C)C)C(=O)OC2CCCC2)sc1-c1ccc(Cl)c(S(C)(=O)=O)c1` [Example 4, Cyclopentyl O-tert-butyl-N-({5-[4-chloro-3-(methylsulfonyl)phenyl]-4-methyl-1,3-thiazol-2-yl}carbamoyl)-L-serinate]: the IC50 in assay [1] was 100 to 1000 nM; in assay [2], > 1000 nM.

Consider `Cc1nc(NC(=O)CCCN[C@@H](CCC(=O)O)C(=O)OC2CCCC2)sc1-c1ccc(Cl)c(S(C)(=O)=O)c1` [Example 8, (4S)-4-{[4-({5-[4-Chloro-3-(methylsulfonyl)phenyl]-4-methyl-1,3-thiazol-2-yl}amino)-4-oxobutyl]amino}-5-(cyclopentyloxy)-5-oxopentanoic acid], for which the IC50 in assay [1] fell in the range of 100 to 1000 nM.

Regarding `CC(=O)Nc1nc(C)c(-c2ccc(Cl)c(S(=O)(=O)N[C@@H](COC(C)(C)C)C(=O)O)c2)s1` [Example 42, N-{[5-(2-Acetamido-4-methyl-1,3-thiazol-5-yl)-2-chlorophenyl]sulfonyl}-O-tert-butyl-L-serine], in assay [1], the IC50 was > 1000 nM.

In the case of `CC(=O)Nc1nc(C)c(-c2ccc(Cl)c(S(=O)(=O)NCCN[C@@H](CC(C)C)C(=O)O)c2)s1` [Example 43, N-[2-({[5-(2-Acetamido-4-methyl-1,3-thiazol-5-yl)-2-chlorophenyl]sulfonyl}amino)ethyl]-L-leucine], the IC50 in assay [1] was > 1000 nM.

As to `CC(=O)Nc1nc(C)c(-c2ccc(Cl)c(S(=O)(=O)N[C@@H](C)C(=O)OC3CCCC3)c2)s1` [Example 20, Cyclopentyl N-{[5-(2-acetamido-4-methyl-1,3-thiazol-5-yl)-2-chlorophenyl]sulfonyl}-L-alaninate], the results for the IC50 in assay [1] and in assay [2] were < 100 nM and > 1000 nM, respectively.

Take `Cc1nc(NC(=O)N[C@@H](Cc2ccccc2)C(=O)O)sc1-c1ccc(Cl)c(S(C)(=O)=O)c1` [Example 31, N-({5-[4-Chloro-3-(methylsulfonyl)phenyl]-4-methyl-1,3-thiazol-2-yl}carbamoyl)-L-phenylalanine]: in assay [1], the IC50 was > 1000 nM.

As for `Cc1nc(NC(=O)CCCN[C@@H](CC(C)C)C(=O)O)sc1-c1ccc(Cl)c(S(C)(=O)=O)c1` [Example 32, N-4-({5-[4-Chloro-3-(methylsulfonyl)phenyl-4-methyl-1,3-thiazol-2-yl}amino)-4-oxobutyl]-L-leucine], the IC50 in assay [1] is > 1000 nM.

With `Cc1nc(NCC2CCC(N[C@@H](CC(C)C)C(=O)OC3CCCC3)CC2)sc1-c1ccc(Cl)c(S(C)(=O)=O)c1` (stereo partly drawn) [Example 18, Cyclopentyl N-{4-[({5-[4-chloro-3-(methylsulfonyl)phenyl]-4-methyl-1,3-thiazol-2-yl}amino)methyl]cyclohexyl}-L-leucinate], the IC50 in assay [1] and in assay [2] was > 1000 nM throughout.

Consider `Cc1nc(NCC2CCC(N[C@@H](CC(C)C)C(=O)O)CC2)sc1-c1ccc(Cl)c(S(C)(=O)=O)c1` (stereo partly drawn) [Example 40, N-{4-[({5-[4-Chloro-3-(methylsulfonyl)phenyl]-4-methyl-1,3-thiazol-2-yl}amino)methyl]cyclohexyl}-L-leucine], for which the IC50 in assay [1] was > 1000 nM.

Consider `Cc1nc(NC(=O)CCCN[C@@H](COC(C)(C)C)C(=O)O)sc1-c1ccc(Cl)c(S(C)(=O)=O)c1` [Example 37, O-tert-Butyl-N-[4-({5-[4-chloro-3-(methylsulfonyl)phenyl]-4-methyl-1,3-thiazol-2-yl}amino)-4-oxobutyl]-L-serine], for which, in assay [1], the IC50 was > 1000 nM.

Regarding `CC(=O)Nc1nc(C)c(-c2ccc(Cl)c(S(=O)(=O)N[C@@H](C)C(=O)O)c2)s1` [Example 41, N-{[5-(2-Acetamido-4-methyl-1,3-thiazol-5-yl)-2-chlorophenyl]sulfonyl}-L-alanine], the IC50 in assay [1] was > 1000 nM.

Take `Cc1nc(NC(=O)CCCN[C@H](C(=O)O)c2ccccc2)sc1-c1ccc(Cl)c(S(C)(=O)=O)c1` [Example 35, (2S)-{[4-({5-[4-Chloro-3-(methylsulfonyl)phenyl]-4-methyl-1,3-thiazol-2-yl}amino)-4-oxobutyl]amino}(phenyl)acetic acid]: in assay [1], the IC50 was > 1000 nM.

`CC(=O)Nc1nc(C)c(-c2ccc(Cl)c(S(=O)(=O)N[C@@H](CO)C(=O)O)c2)s1` [Example 44, N-{[5-(2-Acetamido-4-methyl-1,3-thiazol-5-yl)-2-chlorophenyl]sulfonyl}-L-serine]: the IC50 in assay [1] was > 1000 nM.

Turning to `Cc1nc(NC(=O)CCCN[C@@H](C(=O)O)c2ccccc2)sc1-c1ccc(Cl)c(S(C)(=O)=O)c1` [Example 34, (2R)-{[4-({5-[4-Chloro-3-(methylsulfonyl)phenyl]-4-methyl-1,3-thiazol-2-yl}amino)-4-oxobutyl]amino}(phenyl)acetic acid], the IC50 in assay [1] was > 1000 nM.

With `Cc1nc(NC(=O)CCCN[C@@H](Cc2ccccc2)C(=O)O)sc1-c1ccc(Cl)c(S(C)(=O)=O)c1` [Example 36, N-[4-({5-[4-Chloro-3-(methylsulfonyl)phenyl]-4-methyl-1,3-thiazol-2-yl}amino)-4-oxobutyl]-L-phenylalanine], in assay [1], the IC50 is > 1000 nM.

Consider `Cc1nc(NC(=O)CCCN[C@@H](CCC(=O)O)C(=O)O)sc1-c1ccc(Cl)c(S(C)(=O)=O)c1` [Example 33, N-[4-({5-[4-Chloro-3-(methylsulfonyl)phenyl]-4-methyl-1,3-thiazol-2-yl}amino)-4-oxobutyl]-L-glutamic acid], for which the IC50 in assay [1] was > 1000 nM.

Consider `Cc1nc(NC(=O)CCCN[C@@H](CO)C(=O)O)sc1-c1ccc(Cl)c(S(C)(=O)=O)c1` [Example 45, N-[4-({5-[4-Chloro-3-(methylsulfonyl)phenyl]-4-methyl-1,3-thiazol-2-yl}amino)-4-oxobutyl]-L-serine], for which the IC50 in assay [1] was > 1000 nM.
